# According to ChEMBL document CHEMBL1134003, “7-Pyrrolidinyl- and 7-piperidinyl-5-aryl-pyrrolo[2,3-d]pyrimidines--potent inhibitors of the tyrosine kinase c-Src” (Bioorg Med Chem Lett, 2001):
# Tests used:
# [1] = target: Proto-oncogene tyrosine-protein kinase Src (Gallus gallus, UniProt P00523); assay: Concentration required for inhibition of c-Src mediated phosphorylation of Fak in IC8.1 fibroblast cell assay; type: functional, cell-based
# [2] = target: Proto-oncogene tyrosine-protein kinase Src (Homo sapiens, UniProt P12931); assay: Inhibition of p60 c-Src tyrosine kinase enzyme activity in liquid-phase tyrosine phosphorylation assay at 830 ng/mL
# [3] = target: T1, Tyrosine-protein kinase ABL (Homo sapiens, UniProt P00519+P42684)
# Description: Concentration required for inhibition of v-Abl receptor by tyrosine kinase enzyme assay
# [4] = target: T2, Epidermal growth factor receptor (Homo sapiens, UniProt P00533); assay: Concentration required for inhibition of epidermal growth factor receptor (EGF-R) by tyrosine kinase enzyme activity
# [5] = target: T2, Epidermal growth factor receptor; assay: Inhibition of autophosphorylation of epidermal growth factor receptor (EGF-R) in a cellular assay
# [6] = target: T2, Epidermal growth factor receptor; assay: Inhibition of epidermal growth factor receptor (EGF-R)
# [7] = target: T1, Tyrosine-protein kinase ABL; assay: Inhibition of v-Abl receptor tyrosine kinase enzyme activity; type: protein assay
# Sequence of Proto-oncogene tyrosine-protein kinase Src (Homo sapiens, UniProt P12931) (P12931 2-536 limits assumed): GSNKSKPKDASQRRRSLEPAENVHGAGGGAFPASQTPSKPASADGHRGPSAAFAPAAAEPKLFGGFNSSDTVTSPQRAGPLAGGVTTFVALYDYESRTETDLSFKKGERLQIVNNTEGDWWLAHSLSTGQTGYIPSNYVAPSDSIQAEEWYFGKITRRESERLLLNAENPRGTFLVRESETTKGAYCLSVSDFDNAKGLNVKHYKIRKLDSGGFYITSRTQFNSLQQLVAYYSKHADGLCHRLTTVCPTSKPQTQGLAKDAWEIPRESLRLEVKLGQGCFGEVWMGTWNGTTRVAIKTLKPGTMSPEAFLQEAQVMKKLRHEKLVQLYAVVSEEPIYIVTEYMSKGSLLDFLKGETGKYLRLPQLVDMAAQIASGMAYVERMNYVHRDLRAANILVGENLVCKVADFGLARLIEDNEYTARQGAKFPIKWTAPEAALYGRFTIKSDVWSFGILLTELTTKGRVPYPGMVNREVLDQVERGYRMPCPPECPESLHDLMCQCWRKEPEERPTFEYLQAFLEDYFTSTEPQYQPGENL
# T2 sequence (P00533 whole entry): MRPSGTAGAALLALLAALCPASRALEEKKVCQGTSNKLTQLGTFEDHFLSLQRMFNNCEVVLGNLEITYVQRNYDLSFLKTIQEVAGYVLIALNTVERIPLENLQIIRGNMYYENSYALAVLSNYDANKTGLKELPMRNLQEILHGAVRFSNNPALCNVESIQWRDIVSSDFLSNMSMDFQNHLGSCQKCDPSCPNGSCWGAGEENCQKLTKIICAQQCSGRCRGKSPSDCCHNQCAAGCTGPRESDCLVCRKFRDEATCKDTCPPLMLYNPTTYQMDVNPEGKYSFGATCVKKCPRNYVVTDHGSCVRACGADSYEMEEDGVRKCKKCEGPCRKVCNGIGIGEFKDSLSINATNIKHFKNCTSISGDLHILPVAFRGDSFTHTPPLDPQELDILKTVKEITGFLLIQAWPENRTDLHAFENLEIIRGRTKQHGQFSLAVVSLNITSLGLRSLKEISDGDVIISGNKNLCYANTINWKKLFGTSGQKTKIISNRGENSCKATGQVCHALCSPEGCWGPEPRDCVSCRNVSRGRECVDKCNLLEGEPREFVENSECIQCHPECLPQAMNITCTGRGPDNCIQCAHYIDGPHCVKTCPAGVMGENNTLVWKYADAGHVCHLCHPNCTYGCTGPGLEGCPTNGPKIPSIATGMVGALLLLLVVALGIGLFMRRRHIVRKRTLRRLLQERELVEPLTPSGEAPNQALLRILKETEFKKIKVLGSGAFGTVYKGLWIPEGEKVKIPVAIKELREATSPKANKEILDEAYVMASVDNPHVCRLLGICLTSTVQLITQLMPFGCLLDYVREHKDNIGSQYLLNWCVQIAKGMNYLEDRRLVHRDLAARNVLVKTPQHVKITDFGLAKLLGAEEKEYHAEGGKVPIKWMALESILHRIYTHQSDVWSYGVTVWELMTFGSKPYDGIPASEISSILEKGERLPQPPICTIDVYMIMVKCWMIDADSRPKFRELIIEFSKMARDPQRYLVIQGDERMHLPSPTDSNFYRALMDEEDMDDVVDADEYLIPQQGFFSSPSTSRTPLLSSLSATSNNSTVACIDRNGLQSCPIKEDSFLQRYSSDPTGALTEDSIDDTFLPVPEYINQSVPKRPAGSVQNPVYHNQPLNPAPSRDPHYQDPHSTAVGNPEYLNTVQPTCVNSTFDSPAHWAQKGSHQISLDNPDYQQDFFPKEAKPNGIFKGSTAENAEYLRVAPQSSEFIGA
SMILES,IC50 [1],IC50 [2],IC50 [3],IC50 [4],IC50 [5],IC50 [6],IC50 [7]
COc1cccc(-c2cn(C3CCN(CC(N)=O)CC3)c3ncnc(N)c23)c1,700 nM,22 nM,550 nM,350 nM,,,
COCCN(C)CCN1CCC(n2cc(-c3cccc(OC)c3)c3c(N)ncnc32)CC1,500 nM,47 nM,500 nM,,> 10000 nM,930 nM,
CCOC(=O)C[C@H]1C[C@@H](n2cc(-c3ccccc3)c3c(N)ncnc32)CN1,> 5000 nM,15 nM,,,,,
CN(C)C(=O)CN1CCC(n2cc(-c3cccc(O)c3)c3c(N)ncnc32)CC1,,3 nM,120 nM,500 nM,> 10000 nM,,
NC(=O)CN1CCC(n2cc(-c3cccc(O)c3)c3c(N)ncnc32)CC1,800 nM,1 nM,210 nM,170 nM,> 10000 nM,,
CCOC(=O)C[C@H]1C[C@H](n2cc(-c3ccccc3)c3c(N)ncnc32)CN1,,600 nM,,,,,
CCOC(=O)C[C@H]1C[C@H](n2cc(-c3ccc(O)cc3)c3c(N)ncnc32)CN1C(=O)OC(C)(C)C,700 nM,35 nM,,,,,
CC(C)(C)OC(=O)N1C[C@H](n2cc(-c3ccccc3)c3c(N)ncnc32)C[C@@H]1CO,,2000 nM,,,,,
"Nc1ncnc2c1c(-c1ccc(O)cc1)cn2C1CN[C@@H](CO)C1 (single isomer, unassigned)",> 5000 nM,95 nM,,,,,
CCOC(=O)C[C@H]1C[C@@H](n2cc(-c3ccccc3)c3c(N)ncnc32)CN1C(=O)OC(C)(C)C,,5000 nM,,,,,
COC(=O)CN1CCC(n2cc(-c3cccc(O)c3)c3c(N)ncnc32)C1 (stereo not drawn),700 nM,3 nM,54 nM,740 nM,> 10000 nM,,
COc1cccc(-c2cn(C3CCN(CCO)CC3)c3ncnc(N)c23)c1,1400 nM,27 nM,1030 nM,900 nM,> 10000 nM,,
COCCNCCN1CCC(n2cc(-c3cccc(OC)c3)c3c(N)ncnc32)CC1,290 nM,15 nM,,,> 10000 nM,310 nM,310 nM
COc1cccc(-c2cn(C3CCN(C(=O)OC(C)(C)C)C3)c3ncnc(N)c23)c1 (stereo not drawn),4400 nM,270 nM,2400 nM,2100 nM,,,
Nc1ncnc2c1c(-c1cccc(O)c1)cn2C1CCN(CCO)CC1,600 nM,1 nM,98 nM,2540 nM,> 10000 nM,,
Nc1ncnc2c1c(-c1ccc(O)cc1)cn2C1CCNC1 (stereo not drawn),2700 nM,37 nM,2800 nM,2670 nM,,,
"Nc1ncnc2c1c(-c1ccc(O)cc1)cn2[C@H]1CNC(CO)C1 (single isomer, unassigned)",> 5000 nM,50 nM,,,,,
COc1ccc(-c2cn(C3CCN(C(=O)OC(C)(C)C)C3)c3ncnc(N)c23)cc1 (stereo not drawn),400 nM,400 nM,,,,,
CC(C)(C)OC(=O)N1C[C@@H](n2cc(-c3ccccc3)c3c(N)ncnc32)C[C@@H]1CO,,130 nM,,,,,
Nc1ncnc2c1c(-c1ccccc1)cn2C1CCNC1 (stereo not drawn),,230 nM,,,,,
Nc1ncnc2c1c(-c1ccccc1)cn2[C@H]1CN[C@@H](CO)C1,,130 nM,,,,,
COc1cccc(-c2cn(C3CCN(CC(=O)N(C)C)CC3)c3ncnc(N)c23)c1,> 5000 nM,67 nM,,750 nM,,,
CCOC(=O)C[C@H]1C[C@@H](n2cc(-c3ccc(O)cc3)c3c(N)ncnc32)CN1C(=O)OC(C)(C)C,,300 nM,,,,,
COC(=O)CN1CCC(n2cc(-c3cccc(O)c3)c3c(N)ncnc32)CC1,400 nM,< 1 nM,56 nM,800 nM,> 10000 nM,,
Nc1ncnc2c1c(-c1cccc(O)c1)cn2C1CCNC1 (stereo not drawn),800 nM,6 nM,290 nM,1530 nM,> 10000 nM,,

# The remaining molecules from weak to strong by IC50 [2], led by results:
IC50 [1],IC50 [2],IC50 [3],IC50 [4],IC50 [5],IC50 [6],IC50 [7],SMILES
,410 nM,,,,,,CCOC(=O)C[C@H]1C[C@H](n2cc(-c3ccccc3)c3c(N)ncnc32)CN1C(=O)OC(C)(C)C
,350 nM,,,,,,CC(C)(C)OC(=O)N1C[C@H](n2cc(-c3ccc(O)cc3)c3c(N)ncnc32)C[C@@H]1CO
,300 nM,,,,,,COc1ccc(-c2cn(C3CCNC3)c3ncnc(N)c23)cc1 (stereo not drawn)
,300 nM,,,,,,Nc1ncnc2c1c(-c1ccccc1)cn2[C@@H]1CN[C@@H](CO)C1
> 5000 nM,180 nM,,8300 nM,,,,CC(C)(C)OC(=O)N1CCC(n2cc(-c3ccccc3)c3c(N)ncnc32)C1 (stereo not drawn)
,100 nM,,,,,,CCOC(=O)C[C@H]1C[C@H](n2cc(-c3ccc(O)cc3)c3c(N)ncnc32)CN1
2800 nM,84 nM,1000 nM,,,,,COC(=O)CN1CCC(n2cc(-c3cccc(OC)c3)c3c(N)ncnc32)CC1
> 5000 nM,53 nM,1400 nM,1120 nM,,,,COc1cccc(-c2cn(C3CCNC3)c3ncnc(N)c23)c1 (stereo not drawn)
> 5000 nM,50 nM,590 nM,,,,,COC(=O)CN1CCC(n2cc(-c3cccc(OC)c3)c3c(N)ncnc32)C1 (stereo not drawn)
> 5000 nM,38 nM,700 nM,440 nM,,,,COc1cccc(-c2cn(C3CCN(CC(N)=O)C3)c3ncnc(N)c23)c1 (stereo not drawn)
3300 nM,24 nM,,,,,,CC(C)(C)OC(=O)N1C[C@@H](n2cc(-c3ccc(O)cc3)c3c(N)ncnc32)C[C@@H]1CO
400 nM,8 nM,,,,,,CC(C)(C)OC(=O)N1CCC(n2cc(-c3ccc(O)cc3)c3c(N)ncnc32)C1 (stereo not drawn)
600 nM,6 nM,360 nM,295 nM,7800 nM,,,COc1cccc(-c2cn(C3CCN(CCN(C)CCO)CC3)c3ncnc(N)c23)c1
3300 nM,5 nM,,,,,,CCOC(=O)C[C@H]1C[C@@H](n2cc(-c3ccc(O)cc3)c3c(N)ncnc32)CN1
3100 nM,5 nM,58 nM,2200 nM,> 10000 nM,,,CC(C)(C)OC(=O)N1CCC(n2cc(-c3cccc(O)c3)c3c(N)ncnc32)C1 (stereo not drawn)
,4 nM,150 nM,400 nM,> 10000 nM,,,NC(=O)CN1CCC(n2cc(-c3cccc(O)c3)c3c(N)ncnc32)C1 (stereo not drawn)
